According to PMC7324522, “Targeting a critical step in fungal hexosamine biosynthesis” (The Journal of Biological Chemistry, 2020):

Tests used:
AfGna1 [1] = biological target: T1, AfGna1 (Aspergillus fumigatus, UniProt Q4WCU5); test: bio-layer interferometry, confirmed by isothermal titration calorimetry; type: binding; conditions: read-out: equilibrium dissociation constant
T1 construct: gene AFUA_6G02460; GST fusion (pGEX6P-1) from E. coli BL21(DE3) pLysS, GST tag cleaved with PreScission; obligate homodimer; 164-165 residues modelled; biotinylated for BLI
T1 sequence (Q4WCU5 1-190): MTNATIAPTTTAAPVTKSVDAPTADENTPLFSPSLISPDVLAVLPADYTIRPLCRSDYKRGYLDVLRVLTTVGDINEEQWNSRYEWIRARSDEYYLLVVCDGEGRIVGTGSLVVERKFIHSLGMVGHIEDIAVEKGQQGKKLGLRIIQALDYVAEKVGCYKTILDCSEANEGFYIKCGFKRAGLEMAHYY

AfGna1 [2] = biological target: T1, AfGna1; test: bio-layer interferometry, biotinylated protein on SSA biosensors; type: binding

| SMILES | Kd (AfGna1 [1]) | Kd (AfGna1 [2]) |
| --- | --- | --- |
| Clc1ccccc1-c1nnc[nH]1 [compound 1, fragment hit 1] | 6 µM | – |
| Nc1cccc(-c2nc[nH]n2)c1Cl [compound 2, 2-chloro-3-(1,2,4-triazol-3-yl)aniline] | – | 0.8 µM |
| OCCN(CCO)c1cc(Cl)c(-c2nc[nH]n2)c(Cl)c1 [compound 3, 2,2′-((3,5-dichloro-4-(1,2,4-triazol-3-yl)phenyl)azanediyl)bis(ethan-1-ol)] | – | 5 µM |
